# Assay results published in the Kinase Knowledgebase extract (Sharma et al. 2016).
# Biological target: MAPK14 (human) (UniProt Q16539)
# Assay: Inhibition of MAPK14 Kinase Activity
# Sequence of MAPK14 (human) (Q16539 whole entry, looked up): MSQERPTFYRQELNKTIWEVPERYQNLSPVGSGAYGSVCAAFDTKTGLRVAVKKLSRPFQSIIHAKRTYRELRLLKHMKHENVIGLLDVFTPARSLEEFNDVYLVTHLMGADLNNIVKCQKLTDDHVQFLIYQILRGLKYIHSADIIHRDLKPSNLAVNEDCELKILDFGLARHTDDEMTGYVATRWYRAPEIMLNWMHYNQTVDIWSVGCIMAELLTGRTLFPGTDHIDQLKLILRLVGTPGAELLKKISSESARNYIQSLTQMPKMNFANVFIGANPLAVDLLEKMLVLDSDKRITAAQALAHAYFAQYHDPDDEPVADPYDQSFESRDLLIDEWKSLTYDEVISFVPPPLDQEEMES
row,IC50 [nM],Compound
1,≤ 1000,CC(C)NC(=O)c1csc(-c2oc(CNC(=O)C(Cc3ccc(O)cc3)NC(=O)OC(C)(C)C)nc2-c2ccc(F)cc2)n1 (centres undefined)
2,≤ 1000,CC(C)NC(=O)c1csc(-c2oc(CNC(=O)c3ccc4cc(O)ccc4c3)nc2-c2ccc(F)cc2)n1
3,≤ 1000,CC(C)NC(=O)c1csc(-c2c(-c3ccc(F)cc3)n[nH]c2C2CCN(C(=O)c3cccnc3)CC2)n1
4,≤ 1000,CC(C)NC(=O)c1csc(-c2oc(CNCCc3ccc(S(N)(=O)=O)cc3)nc2-c2ccc(F)cc2)n1
5,≤ 1000,COCCNC(=O)c1csc(-c2sc(C)nc2-c2ccc(F)cc2)n1
6,≤ 1000,Cc1nc(-c2ccc(F)cc2)c(-c2nc(C(=O)N3CCCC3CO)cs2)s1 (centres undefined)
7,≤ 1000,CCNC(=O)c1csc(-c2c(-c3ccc(F)cc3)n[nH]c2C2CCN(C(=O)CO)CC2)n1
8,≤ 1000,Cc1nc(-c2ccc(F)cc2)c(-c2nc(C(=O)NCCC(C)C)cs2)s1
9,≤ 1000,CC(C)NC(=O)c1csc(-c2oc(CNC(=O)c3ccc4cccc(O)c4n3)nc2-c2ccc(F)cc2)n1
10,≤ 1000,CC(C)NC(=O)c1csc(-c2oc(CNC(=O)c3cc(Cl)ccc3[N+](=O)[O-])nc2-c2ccc(F)cc2)n1
11,≤ 1000,CC(C)NC(=O)c1csc(-c2oc(CN3CCNCC3)nc2-c2ccc(F)cc2)n1
12,≤ 1000,CC(=O)NCc1nc(-c2ccc(F)cc2)c(-c2nc(C(=O)NC(C)C)cs2)[nH]1
13,≤ 1000,CC(=O)N1CCN(Cc2nc(-c3ccc(F)cc3)c(-c3nc(C(=O)NC(C)C)cs3)o2)CC1
14,≤ 1000,CC(C)NC(=O)c1csc(-c2oc(CNC(=O)C=Cc3cccc(O)c3)nc2-c2ccc(F)cc2)n1
15,≤ 1000,CC(=O)c1cccc(NC(=O)c2csc(-c3sc(C)nc3-c3ccc(F)cc3)n2)c1
16,≤ 1000,CC(C)NC(=O)c1csc(-c2c(-c3ccc(F)cc3)n[nH]c2C2CCN(C(=O)c3cscn3)CC2)n1
17,≤ 1000,CC(C)NC(=O)c1csc(-c2[nH]c(CN3CCNCC3)nc2-c2ccc(F)cc2)n1
18,≤ 1000,Cc1onc(-c2ccc(F)cc2)c1-c1ccn(C(=O)NC(C)C)n1
19,≤ 1000,Cc1nc(Br)sc1C(=O)NCc1nc(-c2ccc(F)cc2)c(-c2nc(C(=O)NC(C)C)cs2)o1
20,≤ 1000,CC(C)NC(=O)c1csc(-c2oc(CNC(=O)c3ccc([N+](=O)[O-])cc3Cl)nc2-c2ccc(F)cc2)n1
21,≤ 1000,Cc1nc(-c2ccc(F)cc2)c(-c2nc(C(=O)NCCc3ccc(S(N)(=O)=O)cc3)cs2)s1
22,≤ 1000,COc1ccc(C(=O)N2CCN(Cc3nc(-c4ccc(F)cc4)c(-c4nc(C(=O)NC(C)C)cs4)o3)CC2)cc1O

row,IC50 [nM],Compound
1,≤ 1000,CC(C)NC(=O)c1csc(-c2oc(CN3CCN(C(=O)C(Cc4ccc(O)cc4)NC(=O)OC(C)(C)C)CC3)nc2-c2ccc(F)cc2)n1 (centres undefined)
2,≤ 1000,O=C(NCC(F)(F)F)c1csc(-c2c(-c3ccc(F)cc3)ncn2C2CCNCC2)n1
3,≤ 1000,Cc1nc(-c2ccc(F)cc2)c(-c2nc(C(=O)NCc3ccc(C)c(C)c3)cs2)s1
4,≤ 1000,Cc1onc(-c2ccc(Cl)cc2)c1-c1ccn(C(=O)NC(C)C)n1
5,≤ 1000,COc1ccc(OC)c(CCNC(=O)c2csc(-c3sc(C)nc3-c3ccc(F)cc3)n2)c1
6,≤ 1000,Cc1[nH]nc(-c2ccc(F)cc2)c1-c1nc(C(=O)NCc2ccncc2)cs1
7,≤ 1000,CC(C)NC(=O)c1csc(-c2c(-c3ccc(F)cc3)n[nH]c2C2CCN(C(=O)c3cccc(O)c3)CC2)n1
8,≤ 1000,CC(C)NC(=O)c1csc(-c2c(-c3ccc(F)cc3)noc2CNCCCN2CCCC2=O)n1
9,≤ 1000,Cc1nc(-c2ccc(F)cc2)c(-c2nc(C(=O)NCCCNC(=O)OC(C)(C)C)cs2)s1
10,≤ 1000,CC(C)NC(=O)c1csc(-c2oc(CNC(=O)C3CCCO3)nc2-c2ccc(F)cc2)n1 (centres undefined)
11,≤ 1000,O=C(NCc1ccncc1)c1csc(-c2c(-c3ccc(F)cc3)n[nH]c2C2CCNCC2)n1
12,≤ 1000,CC(C)NC(=O)c1csc(-c2oc(CNC(=O)c3cccc(Cl)c3[N+](=O)[O-])nc2-c2ccc(F)cc2)n1
13,≤ 1000,CC(C)NC(=O)c1csc(-c2oc(CNC(=O)c3ccc(Cl)nc3)nc2-c2ccc(F)cc2)n1
14,≤ 1000,CC(C)NC(=O)c1csc(-c2oc(CNC(=O)C(F)(F)F)nc2-c2ccc(F)cc2)n1
15,≤ 1000,CC(C)NC(=O)c1csc(-c2oc(CNC(=O)C3CCCCC3)nc2-c2ccc(F)cc2)n1
16,≤ 1000,Cc1nc(-c2ccc(F)cc2)c(-c2nc(C(=O)NCc3cc(F)cc(F)c3)cs2)s1
17,≤ 1000,COc1cccc(OC)c1C(=O)N1CCN(Cc2nc(-c3ccc(F)cc3)c(-c3nc(C(=O)NC(C)C)cs3)o2)CC1
18,≤ 1000,CC(C)NC(=O)c1csc(-c2oc(CNC(=O)c3cccc(Cl)c3Cl)nc2-c2ccc(F)cc2)n1
19,≤ 1000,CCCCOc1ccc(C(=O)N2CCC(c3[nH]nc(-c4ccc(F)cc4)c3-c3nc(C(=O)NC(C)C)cs3)CC2)cc1
20,≤ 1000,COc1cc(CNC(=O)c2csc(-c3sc(C)nc3-c3ccc(F)cc3)n2)cc(OC)c1
21,≤ 1000,Cc1onc(-c2ccc(F)c(Cl)c2)c1-c1ccn(C(=O)NC(C)C)n1
22,≤ 1000,Cc1nc(-c2ccc(F)cc2)c(-c2nc(C(=O)N[C@H](C)c3ccccc3)cs2)s1

row,IC50 [nM],Compound
1,≤ 1000,CCN(CC)c1ccc(C(=O)NCc2nc(-c3ccc(F)cc3)c(-c3nc(C(=O)NC(C)C)cs3)o2)cc1
2,≤ 1000,CC(C)NC(=O)c1csc(-c2oc(CNC(=O)c3ccccc3C(=O)c3ccc(O)cc3)nc2-c2ccc(F)cc2)n1
3,≤ 1000,Cc1nc(-c2ccc(F)cc2)c(-c2nc(C(=O)NCc3ccccc3F)cs2)s1
4,≤ 1000,CC(C)NC(=O)c1csc(-c2oc(CN3CCN(C(=O)c4cscn4)CC3)nc2-c2ccc(F)cc2)n1
5,≤ 1000,O=C(NC1CCCC1)c1csc(-c2c(-c3ccc(F)cc3)n[nH]c2C2CCNCC2)n1
6,≤ 1000,Cc1nc(-c2ccc(F)cc2)c(-c2nc(C(=O)NCC(C)c3ccccc3)cs2)s1 (centres undefined)
7,≤ 1000,CCNC(=O)c1csc(-c2c(-c3ccc(F)cc3)n[nH]c2C)n1
8,≤ 1000,COCC(=O)N1CCC(c2[nH]nc(-c3ccc(F)cc3)c2-c2nc(C(=O)NC(C)C)cs2)CC1
9,≤ 1000,COc1ccc(-c2ccccc2)cc1NCc1onc(-c2ccc(F)cc2)c1-c1nc(C(=O)NC(C)C)cs1
10,≤ 1000,CC(C)NC(=O)c1csc(-c2oc(CNC(=O)c3cc(F)c(F)cc3[N+](=O)[O-])nc2-c2ccc(F)cc2)n1
11,≤ 1000,CC(=O)NCC(=O)NCc1nc(-c2ccc(F)cc2)c(-c2nc(C(=O)NC(C)C)cs2)o1
12,≤ 1000,CC(C)NC(=O)c1csc(-c2oc(CNC(=O)c3cc(F)c(F)cc3Cl)nc2-c2ccc(F)cc2)n1
13,≤ 1000,CC(C)NC(=O)c1csc(-c2c(-c3ccc(F)cc3)ncn2C)n1
14,≤ 1000,Cc1nc(-c2ccc(F)cc2)c(-c2nc(C(=O)Nc3cccc(Cl)c3C)cs2)s1
15,≤ 1000,CC(C)NC(=O)c1csc(-c2oc(CNC(=O)c3cc(C(C)C)cc(C(C)C)c3O)nc2-c2ccc(F)cc2)n1
16,≤ 1000,O=C(NCCCO)c1csc(-c2c(-c3ccc(F)cc3)n[nH]c2C2CCNCC2)n1
17,≤ 1000,COc1cccc(O)c1C(=O)N1CCN(Cc2nc(-c3ccc(F)cc3)c(-c3nc(C(=O)NC(C)C)cs3)o2)CC1
18,≤ 1000,CCOC(=O)CC1C(=O)NCCN1C(=O)c1csc(-c2sc(C)nc2-c2ccc(F)cc2)n1 (centres undefined)
19,≤ 1000,Cc1nc(-c2ccc(F)cc2)c(-c2nc(C(=O)NCc3ccccc3)cs2)s1
20,≤ 1000,Cc1onc(-c2ccccc2)c1-c1ccn(C(=O)NC(C)C)n1
21,≤ 1000,C#CCNC(=O)c1csc(-c2c(-c3ccc(F)cc3)n[nH]c2C)n1
22,≤ 1000,COc1ccc([N+](=O)[O-])c(C(=O)NCc2nc(-c3ccc(F)cc3)c(-c3nc(C(=O)NC(C)C)cs3)o2)c1

row,IC50 [nM],Compound
1,≤ 1000,CC(C)NC(=O)c1csc(-c2oc(CNC(=O)Cc3c(F)cccc3F)nc2-c2ccc(F)cc2)n1
2,≤ 1000,CC(C)NC(=O)c1csc(-c2c(-c3ccc(F)cc3)n[nH]c2C2CCN(C(=O)c3cc(O)c(O)c(O)c3)CC2)n1
3,≤ 1000,CC(C)NC(=O)c1csc(-c2oc(CNC(=O)CCc3nc4ccccc4[nH]3)nc2-c2ccc(F)cc2)n1
4,≤ 1000,CC(C)NC(=O)c1csc(-c2oc(CNC(=O)C3CN(C(=O)OC(C)(C)C)CCN3)nc2-c2ccc(F)cc2)n1 (centres undefined)
5,≤ 1000,CC(=O)N1CCC(c2[nH]nc(-c3ccc(F)cc3)c2-c2nc(C(=O)NC(C)C)cs2)CC1
6,≤ 1000,CC(C)NC(=O)c1csc(-c2oc(CNC(=O)c3cccc(O)c3)nc2-c2ccc(F)cc2)n1
7,≤ 1000,CC1=NN(c2ccc(C(=O)NCc3nc(-c4ccc(F)cc4)c(-c4nc(C(=O)NC(C)C)cs4)o3)cc2)C(=O)C1
8,≤ 1000,CC(C)NC(=O)c1csc(-c2oc(CN3CCN(C(=O)C(Cl)(Cl)Cl)CC3)nc2-c2ccc(F)cc2)n1
9,≤ 1000,COc1ccccc1NC(=O)c1csc(-c2sc(C)nc2-c2ccc(F)cc2)n1
10,≤ 1000,CC(C)NC(=O)c1csc(-c2oc(CN3CCN(C(=O)c4cnc[nH]4)CC3)nc2-c2ccc(F)cc2)n1
11,≤ 1000,Cc1cccc(C(=O)N2CCN(Cc3nc(-c4ccc(F)cc4)c(-c4nc(C(=O)NC(C)C)cs4)o3)CC2)c1O
12,≤ 1000,O=C(NC1CC1)c1csc(-c2c(-c3ccc(F)cc3)n[nH]c2C2CCNCC2)n1
13,≤ 1000,O=C(NC1CCC1)c1csc(-c2c(-c3ccc(F)cc3)n[nH]c2C2CCNCC2)n1
14,≤ 1000,COCCNCc1nc(-c2ccc(F)cc2)c(-c2nc(C(=O)NC(C)C)cs2)o1
15,≤ 1000,CC(=O)c1ccc(C(=O)NCc2nc(-c3ccc(F)cc3)c(-c3nc(C(=O)NC(C)C)cs3)o2)cc1
16,≤ 1000,COc1cc(OC)c(C(=O)N2CCN(Cc3nc(-c4ccc(F)cc4)c(-c4nc(C(=O)NC(C)C)cs4)o3)CC2)c(OC)c1
17,≤ 1000,CC(CO)NC(=O)c1csc(-c2c(-c3ccc(F)cc3)n[nH]c2C2CCNCC2)n1 (centres undefined)
18,≤ 1000,CCC(CO)NC(=O)c1csc(-c2sc(C)nc2-c2ccc(F)cc2)n1 (centres undefined)
19,≤ 1000,CC(C)NC(=O)c1csc(-c2oc(CNC(=O)C(C)(C)C)nc2-c2ccc(F)cc2)n1
20,≤ 1000,CC(C)NC(=O)c1csc(-c2oc(CN3CCN(C(=O)c4ccccc4C=O)CC3)nc2-c2ccc(F)cc2)n1
21,≤ 1000,CCOc1ccc2ccccc2c1C(=O)N1CCN(Cc2nc(-c3ccc(F)cc3)c(-c3nc(C(=O)NC(C)C)cs3)o2)CC1
22,≤ 1000,Cc1nc(-c2ccc(F)cc2)c(-c2nc(C(=O)NCc3ccc(Cl)cc3Cl)cs2)s1

row,Compound,IC50 [nM]
1,CC(C)NC(=O)c1csc(-c2oc(CN3CCN(C(=O)Cc4ccccc4O)CC3)nc2-c2ccc(F)cc2)n1,≤ 1000
